Measurements taken from ChEMBL document CHEMBL3885881, “DrugMatrix”.

Species on record: Rattus norvegicus
Test: DrugMatrix - Regimen: Daily Repeat
Type: toxicity, organism-based, Sprague-Dawley
Set-up: regimen Daily Repeat, gender Male, age 6-8 weeks
Conditions: in vivo, po, route oral GAVAGE, vehicle 100 % WATER; for ABSOLUTE BASOPHIL / ABSOLUTE EOSINOPHIL / ABSOLUTE LYMPHOCYTE / ABSOLUTE MONOCYTE / ABSOLUTE SEGMENTED NEUTROPHIL / BASOPHIL / EOSINOPHIL / ERYTHROCYTE COUNT / HEMATOCRIT / HEMOGLOBIN / LEUKOCYTE COUNT / LYMPHOCYTE / MEAN CORPUSCULAR HEMOGLOBIN / MEAN CORPUSCULAR HEMOGLOBIN CONCENTRATION / MEAN CORPUSCULAR VOLUME / MONOCYTE / NEUTROPHIL / NUCLEATED RED BLOOD CELLS / PLATELET COUNT: tissue Blood; for ALANINE AMINOTRANSFERASE / ALBUMIN / ALKALINE PHOSPHATASE / ASPARTATE AMINOTRANSFERASE / BLOOD UREA NITROGEN / CARBON DIOXIDE / CHLORIDE / CHOLESTEROL / CREATINE PHOSPHOKINASE / CREATININE / GLUCOSE / LACTATE DEHYDROGENASE / LIPASE / PHOSPHORUS / POTASSIUM / SODIUM / TOTAL BILIRUBIN / TOTAL PROTEIN / URIC ACID: tissue Plasma
[1] = 10 mg/kg, 120 h, dose level Low, time 5 day
[2] = 230 mg/kg, 72 h, dose level High, time 3 day
[3] = 230 mg/kg, 120 h, dose level High, time 5 day

## CCN(CC)CC#CCOC(=O)C(O)(c1ccccc1)C1CCCCC1 (centres undefined) [OXYBUTYNIN]
[1]
  ABSOLUTE BASOPHIL: 0 CELLS/uL
  ABSOLUTE EOSINOPHIL: 0 CELLS/uL
  ABSOLUTE LYMPHOCYTE: 12363 CELLS/uL
  ABSOLUTE MONOCYTE: 41 CELLS/uL
  ABSOLUTE SEGMENTED NEUTROPHIL: 1896 CELLS/uL
  BASOPHIL: 0%
  EOSINOPHIL: 0%
  ERYTHROCYTE COUNT: 5.64 x10E6/uL
  HEMATOCRIT: 34.63%
  HEMOGLOBIN: 13.8 G/DL
  LEUKOCYTE COUNT: 14.3 x10E3/uL
  LYMPHOCYTE: 86.33%
  MEAN CORPUSCULAR HEMOGLOBIN: 24.47 pg
  MEAN CORPUSCULAR HEMOGLOBIN CONCENTRATION: 39.83 G/DL
  MEAN CORPUSCULAR VOLUME: 61.4 fL
  MONOCYTE: 0.33%
  NEUTROPHIL: 13.33%
  NUCLEATED RED BLOOD CELLS: 0 /100WBC
  PLATELET COUNT: 1196.33 x10E3/uL
  ALANINE AMINOTRANSFERASE: 57 u/L
  ALBUMIN: 4.07 G/DL
  ALKALINE PHOSPHATASE: 391.67 u/L
  ASPARTATE AMINOTRANSFERASE: 79 u/L
  BLOOD UREA NITROGEN: 17.67 mg/dL
  CARBON DIOXIDE: 27 mmol/L
  CHLORIDE: 99.67 MEQ/L
  CHOLESTEROL: 67 mg/dL
  CREATINE PHOSPHOKINASE: 306.33 u/L
  CREATININE: 0.2 mg/dL
  GLUCOSE: 152.33 mg/dL
  LACTATE DEHYDROGENASE: 146.67 u/L
  LIPASE: 9 u/L
  PHOSPHORUS: 11.87 mg/dL
  POTASSIUM: 6.33 MEQ/L
  SODIUM: 141.53 MEQ/L
  TOTAL BILIRUBIN: 0.23 mg/dL
  TOTAL PROTEIN: 5.87 G/DL
  URIC ACID: 1.93 mg/dL
[2]
  ABSOLUTE BASOPHIL: 0 CELLS/uL
  ABSOLUTE EOSINOPHIL: 99.33 CELLS/uL
  ABSOLUTE LYMPHOCYTE: 11911 CELLS/uL
  ABSOLUTE MONOCYTE: 110.67 CELLS/uL
  ABSOLUTE SEGMENTED NEUTROPHIL: 1845.67 CELLS/uL
  BASOPHIL: 0%
  EOSINOPHIL: 0.67%
  ERYTHROCYTE COUNT: 6.5 x10E6/uL
  HEMATOCRIT: 39.53%
  HEMOGLOBIN: 15.4 G/DL
  LEUKOCYTE COUNT: 13.97 x10E3/uL
  LYMPHOCYTE: 85.67%
  MEAN CORPUSCULAR HEMOGLOBIN: 23.7 pg
  MEAN CORPUSCULAR HEMOGLOBIN CONCENTRATION: 38.93 G/DL
  MEAN CORPUSCULAR VOLUME: 60.77 fL
  MONOCYTE: 0.67%
  NEUTROPHIL: 13%
  NUCLEATED RED BLOOD CELLS: 0 /100WBC
  PLATELET COUNT: 1396.33 x10E3/uL
  ALANINE AMINOTRANSFERASE: 51.33 u/L
  ALBUMIN: 4.33 G/DL
  ALKALINE PHOSPHATASE: 293.33 u/L
  ASPARTATE AMINOTRANSFERASE: 83.33 u/L
  BLOOD UREA NITROGEN: 16 mg/dL
  CARBON DIOXIDE: 29.67 mmol/L
  CHLORIDE: 98 MEQ/L
  CHOLESTEROL: 57.33 mg/dL
  CREATINE PHOSPHOKINASE: 488 u/L
  CREATININE: 0.18 mg/dL
  GLUCOSE: 140.67 mg/dL
  LACTATE DEHYDROGENASE: 180 u/L
  LIPASE: 9.67 u/L
  PHOSPHORUS: 11.4 mg/dL
  POTASSIUM: 6.48 MEQ/L
  SODIUM: 141.17 MEQ/L
  TOTAL BILIRUBIN: 0.23 mg/dL
  TOTAL PROTEIN: 5.87 G/DL
  URIC ACID: 2.47 mg/dL
[3]
  ABSOLUTE BASOPHIL: 0 CELLS/uL
  ABSOLUTE EOSINOPHIL: 0 CELLS/uL
  ABSOLUTE LYMPHOCYTE: 14094.33 CELLS/uL
  ABSOLUTE MONOCYTE: 0 CELLS/uL
  ABSOLUTE SEGMENTED NEUTROPHIL: 1405.67 CELLS/uL
  BASOPHIL: 0%
  EOSINOPHIL: 0%
  ERYTHROCYTE COUNT: 6.31 x10E6/uL
  HEMATOCRIT: 37.53%
  HEMOGLOBIN: 15.13 G/DL
  LEUKOCYTE COUNT: 15.5 x10E3/uL
  LYMPHOCYTE: 90.67%
  MEAN CORPUSCULAR HEMOGLOBIN: 23.97 pg
  MEAN CORPUSCULAR HEMOGLOBIN CONCENTRATION: 40.33 G/DL
  MEAN CORPUSCULAR VOLUME: 59.43 fL
  MONOCYTE: 0%
  NEUTROPHIL: 9.33%
  NUCLEATED RED BLOOD CELLS: 0 /100WBC
  PLATELET COUNT: 1402.33 x10E3/uL
  ALANINE AMINOTRANSFERASE: 64.67 u/L
  ALBUMIN: 4.33 G/DL
  ALKALINE PHOSPHATASE: 412.33 u/L
  ASPARTATE AMINOTRANSFERASE: 87 u/L
  BLOOD UREA NITROGEN: 15.67 mg/dL
  CARBON DIOXIDE: 26.67 mmol/L
  CHLORIDE: 100.33 MEQ/L
  CHOLESTEROL: 59.67 mg/dL
  CREATINE PHOSPHOKINASE: 224 u/L
  CREATININE: 0.17 mg/dL
  GLUCOSE: 140.33 mg/dL
  LACTATE DEHYDROGENASE: 208.33 u/L
  LIPASE: 9.33 u/L
  PHOSPHORUS: 10 mg/dL
  POTASSIUM: 6.76 MEQ/L
  SODIUM: 143.4 MEQ/L
  TOTAL BILIRUBIN: 0.2 mg/dL
  TOTAL PROTEIN: 5.9 G/DL
  URIC ACID: 2.23 mg/dL
